# Measurements: US3948925A, “Novel thiazole derivatives” (priority 1973, dated 1976)
# Where two headings read alike, the source gives them in different places.
# Assays:
# Type in all cases: in vivo
# Sitophilus granarius = test: Insecticidal activity against Sitophilus granarius, topical application to ventral thorax; conditions: 20°C; for mortality at 0.1 mg: dose 100 (μg); for mortality at 1 mg: dose 1000 (μg)
# Method: 0.2 μl of an acetone solution of the test product was applied to the ventral thorax of each insect at concentrations of 5000 and 500 ppm with 50 insects for each test. The insects were held at 20°C and the percent of mortality was determined 24 and 48 hours and 6 days after the treatment.
# Tetranychus urticae eggs = test: Acaricidal activity, ovicide test on egg-infested bean leaves; conditions: 216 h, 9 days after treatment
# Method: (§1) Bean leaves infested with 10 Tetranychus urticae females per leaf and coated with glue about their periphery were used in this test and the females were left to lay eggs for 24 hours and were then removed from the leaves which were egg infested and divided into 2 groups. The first group was sprayed with 0.5 ml of an aqueous solution of compound A for each leaf at concentrations of 50 or 10 mg per liter and the second group was untreated to act as controls. The number of living eggs 9 days after the treatment was determined and the percent of egg mortality was determined and reported in Table IX.
# Panagrellus silusae = test: Nematocidal activity against Panagrellus silusae in aqueous suspension; conditions: for mortality at 100 µg/mL / mortality at 1000 µg/mL: Panagrellus, 24 hours; for mortality at 100 µg/mL: 0.1 g/l; for mortality at 1000 µg/mL: 1 g/l; for nematocidal activity: in vivo
# Method: (§2) About 2000 nematodes suspended in 0.5 ml of water were placed in a container of about 50 ml and 10 ml of an aqueous suspension of the test compound at a concentration of 1 or 0.1 g/liter were added thereto using 3 tests for each concentration. After homogenization of the aqueous media for 24 hours, a 1 ml sample was taken and the living and dead nematodes were counted with a Peter sheet.
# [1] = test system: Spodoptera exigua caterpillars; test: Insecticidal activity against Spodoptera exigua caterpillars, topical application; conditions: for mortality at 0.001 mg / mortality at 0.01 mg: Spodoptera exigua, topical; for mortality at 0.001 mg: 1 μg; for mortality at 0.01 mg: 10 μg
# Method: (§3) This test was effected on Mamestra brassicae caterpillars in the last larvae stage with a body of 1.5 to 2.0 cm. 1 μl of an acetone solution of the test compound was applied topically to the dorsal thorax of each caterpillar using 10 caterpillars for each dose studied and the caterpillars were kept at 25°C.
# (§4) The procedure of Test A was repeated with Spodoptera expigua and Chilo suppressalis caterpillars with compound A and the results are reported in Table II.
# [2] = test system: Chilo suppressalis caterpillars; test: Insecticidal activity against Chilo suppressalis caterpillars, topical application; conditions: for mortality at 0.001 mg / mortality at 0.01 mg: Chilo suppressalis, topical; for mortality at 0.001 mg: 1 μg; for mortality at 0.01 mg: 10 μg
# Method: as §3, §4
# [3] = test system: Tetranychus urticae larvae; test: Acaricidal activity, larvicide test on bean leaves; conditions: 216 h, 9 days after treatment
# Method: as §1
# This test was similar to the ovicide test but the readings were effected 9 days after the treatment to allow time for the insects to evolve.
# Tetranychus urticae = test: Acaricidal activity, adulticide test on infested bean leaves; conditions: read-out: % Mortality (adults); for mortality at 10 µg/mL: 10 mg/liter
# Method: Bean leaves infested with 25 acarids per leaf and coated with glue about their edge were divided into 2 groups. The first group was sprayed with 2.5 ml of an aqueous solution of the test compound A for each leaf at concentrations of 50, 10 and 1 mg/liter. The second control group was untreated and the number of acarids living 48 hours after the spraying was determined to determine the percent of mortality.
# [4] = test system: Mamestra brassicae caterpillars; test: Insecticidal activity against Mamestra brassicae caterpillars, topical application; conditions: 10 μg per caterpillar; for mortality at 0.01 mg: Mamestra brassicae, topical, read-out: percent of mortality
# Method: as §3
# Blatella germanica = test: Insecticidal activity against Blatella germanica, topical application to ventral thorax; conditions: for insecticidal activity: in vivo
# Method: 1 μl of an acetone solution of the test product was applied to the ventral thorax of the insects with 20 insects per dose and concentrations of 2500, 1250, 625 and 312,5 mg/liter. The number of living and dead insects 24 and 48 hours and 6 days after the treatment was determined and the results were reported in Table VI.
# Drosophila melanogaster = test: Insecticidal activity against Drosophila melanogaster, dried film in crystallizer (contact and vapor); conditions: for Emax at 50 µg/mL / Emax at 500 µg/mL / Emax at 5000 µg/mL: Drosophila melanogaster, read-out: % Efficacy; for Emax at 50 µg/mL: 50 mg/liter; for Emax at 500 µg/mL: 500 mg/liter; for Emax at 5000 µg/mL: 5000 mg/liter
# Method: 2 ml of an acetone solution of the test product at concentrations of 5000, 500 and 50 ppm were placed in the bottom of a crystallizer and were then allowed to dry for 1 hour under a laboratory atmosphere. Three tests were run for each concentration and 25 to 50 drosophiles were placed in the crystallizer together with a carrot ring which acted as nutrient for the insects. The crystallizers were closed with a Petri dish cover and they were stored at 20°C. The number of living and dead insects was determined after 1,2,4 and 24 hours and the results for compound A are reported in Table IV.
# [5] = test system: Ditylenchus myceliophagus; test: Nematocidal activity against Ditylenchus myceliophagus in aqueous suspension; conditions: for mortality at 100 µg/mL / mortality at 1000 µg/mL: Ditylenchus myceliophagus, 24 hours; for mortality at 100 µg/mL: 0.1 g/l; for mortality at 1000 µg/mL: 1.0 g/l; for nematocidal activity: in vivo
# Method: as §2
# Ceratitis capitata = test: Insecticidal activity against Ceratitis capitata flies, topical application; conditions: for mortality at 100 µg/mL / mortality at 1000 µg/mL: Ceratitis capitata; for mortality at 100 µg/mL: topical; for mortality at 1000 µg/mL: 1000 mg per liter, 1 μl topical
# Method: This test was effected topically with acetone solutions of 1000 or 100 mg of compound A per liter and 1 μl of the solution was applied to the dorsal thorax of Ceratitis capitata flies aged 25 days (± 0.5) using 50 insects for each concentration. The number of flies still living and dead was determined after 2 and 24 hours to determine the percent of mortality.
# [6] = test system: Mamestra oleracea caterpillars; test: Insecticidal activity against Mamestra oleracea caterpillars, topical application; conditions: for mortality at 0.001 mg / mortality at 0.01 mg: Mamestra, topical; for mortality at 0.001 mg: 1 μg; for mortality at 0.01 mg: 10 μg
smiles,measurement,setting,value
"CCOC(=O)c1csc(OP(=S)(OCC)OCC)n1 [Compound A, 4-ethoxycarbonyl-2-(diethoxythiophosphoryloxy)-thiazole]",mortality at 0.1 mg,"Sitophilus granarius; 144 h, 6 days",10%
same,mortality at 1 mg,"Sitophilus granarius; 144 h, 6 days",100%
same,mortality at 0.1 mg,Sitophilus granarius; 24 hr,6%
same,mortality at 0.1 mg,Sitophilus granarius; 48 hr,6%
same,mortality at 1 mg,Sitophilus granarius; 24 hr,100%
same,mortality at 1 mg,Sitophilus granarius; 48 hr,100%
same,mortality at 10 µg/mL,Tetranychus urticae eggs; 10 mg/liter,93.3%
same,mortality at 50 µg/mL,Tetranychus urticae eggs; 50 mg/liter,100%
same,mortality at 100 µg/mL,Panagrellus silusae,86.5%
same,mortality at 1000 µg/mL,Panagrellus silusae,100%
same,nematocidal activity,Panagrellus silusae,good nematocidal activity
same,mortality at 0.001 mg,[1]; 24 hr,90%
same,mortality at 0.001 mg,[1]; 48 hr,90%
same,mortality at 0.01 mg,[1]; 24 hr,100%
same,mortality at 0.01 mg,[1]; 48 hr,100%
same,insecticidal activity,[1]; in vivo,good insecticidal activity
same,mortality at 0.001 mg,[2]; 24 hr,100%
same,mortality at 0.001 mg,[2]; 48 hr,100%
same,mortality at 0.01 mg,[2]; 24 hr,100%
same,mortality at 0.01 mg,[2]; 48 hr,100%
same,insecticidal activity,[2]; in vivo,good insecticidal activity
same,mortality at 10 µg/mL,[3]; 10 mg/liter,100%
same,mortality at 50 µg/mL,[3]; 50 mg/liter,100%
same,mortality at 10 µg/mL,Tetranychus urticae; 48 hours,100%
same,mortality at 50 µg/mL,"Tetranychus urticae; 50 mg/liter, 48 hours",100%
same,insecticidal activity,[4],good insecticidal activity
same,mortality at 0.01 mg,[4]; 24 h,100%
same,mortality at 0.01 mg,[4]; 48 h,100%
same,% mortality,"Blatella germanica; 625 mg/liter, 24 hr",10.0%
same,% mortality,"Blatella germanica; 625 mg/liter, 48 hr",10.0%
same,% mortality,"Blatella germanica; 625 mg/liter, 6 days",15.0%
same,% mortality,"Blatella germanica; 1250 mg/liter, 24 hr",90.0%
same,% mortality,"Blatella germanica; 1250 mg/liter, 48 hr",95.0%
same,% mortality,"Blatella germanica; 1250 mg/liter, 6 days",100%
same,% mortality,"Blatella germanica; 2500 mg/liter, 24 hr",95.0%
same,% mortality,"Blatella germanica; 2500 mg/liter, 48 hr",95.0%
same,% mortality,"Blatella germanica; 2500 mg/liter, 6 days",100%
same,insecticidal activity,Blatella germanica,good insecticidal activity
same,Emax at 50 µg/mL,Drosophila melanogaster; 1 hour,0%
same,Emax at 50 µg/mL,Drosophila melanogaster; 2 hours,0%
same,Emax at 50 µg/mL,Drosophila melanogaster; 4 hours,0%
same,Emax at 50 µg/mL,Drosophila melanogaster; 24 hours,32.8%
same,Emax at 500 µg/mL,Drosophila melanogaster; 1 hour,0%
same,Emax at 500 µg/mL,Drosophila melanogaster; 2 hours,0%
same,Emax at 500 µg/mL,Drosophila melanogaster; 4 hours,0%
same,Emax at 500 µg/mL,Drosophila melanogaster; 24 hours,100%
same,Emax at 5000 µg/mL,Drosophila melanogaster; 1 hour,0%
same,Emax at 5000 µg/mL,Drosophila melanogaster; 2 hours,0%
same,Emax at 5000 µg/mL,Drosophila melanogaster; 4 hours,5.9%
same,Emax at 5000 µg/mL,Drosophila melanogaster; 24 hours,100%
same,contact and vapor insecticidal activity,Drosophila melanogaster; in vivo,good contact and vapor insecticidal activity
same,mortality at 100 µg/mL,[5],88.4%
same,mortality at 1000 µg/mL,[5],100%
same,nematocidal activity,[5],good nematocidal activity
same,mortality at 100 µg/mL,Ceratitis capitata; 2 h,61.2%
same,mortality at 100 µg/mL,Ceratitis capitata; 24 h,38.8%
same,mortality at 1000 µg/mL,Ceratitis capitata; 2 hours,91.7%
same,mortality at 1000 µg/mL,Ceratitis capitata; 24 hours,97.9%
same,insecticidal activity,Ceratitis capitata; in vivo,good insecticidal activity
same,mortality at 0.001 mg,[6]; 24 hr,40%
same,mortality at 0.001 mg,[6]; 48 hr,50%
same,mortality at 0.01 mg,[6]; 24 hr,100%
same,mortality at 0.01 mg,[6]; 48 hr,100%
same,insecticidal activity,[6]; in vivo,good insecticidal activity
"CCOC(=O)Cc1csc(OP(=S)(OCC)OCC)n1 [Compound B, 4-ethoxycarbonylmethyl-2-(diethoxythiophosphoryloxy)-thiazole]",mortality at 100 µg/mL,Panagrellus silusae,100%
same,mortality at 1000 µg/mL,Panagrellus silusae,100%
same,nematocidal activity,Panagrellus silusae,good nematocidal activity
same,mortality at 1 µg/mL,"Tetranychus urticae; 1 mg/liter, 48 hours",20%
same,mortality at 10 µg/mL,Tetranychus urticae; 48 hours,96%
same,mortality at 50 µg/mL,Tetranychus urticae; 48 h,100%
same,% mortality,"Blatella germanica; 625 mg/liter, 24 hr",100%
same,% mortality,"Blatella germanica; 625 mg/liter, 48 hr",100%
same,% mortality,"Blatella germanica; 625 mg/liter, 6 days",100%
same,% mortality,"Blatella germanica; 1250 mg/liter, 24 hr",100%
same,% mortality,"Blatella germanica; 1250 mg/liter, 48 hr",100%
same,% mortality,"Blatella germanica; 1250 mg/liter, 6 days",100%
same,% mortality,"Blatella germanica; 312,5 mg/liter, 24 hr",90%
same,% mortality,"Blatella germanica; 312,5 mg/liter, 48 hr",90%
same,% mortality,"Blatella germanica; 312,5 mg/liter, 6 days",90%
same,insecticidal activity,Blatella germanica,good insecticidal activity
same,mortality at 100 µg/mL,[5],55.7%
same,mortality at 1000 µg/mL,[5],100%
same,nematocidal activity,[5],good nematocidal activity
